≈ marks a conversion by molar mass, not a printed value. Calls of active or inactive are those of the source. The rule behind the calls is not given here.
How the values were obtained:
Plasmodium berghei [1] = assay: Ratio of quinine hydrochloride SD90 to compound SD90 for trophozoite-induced Plasmodium berghei infected in mouse assessed as daily dose required to suppression of 90% parasite infection administered with diet for 6 days; type: functional
Plasmodium berghei [2] = assay: Antimalarial activity against trophozoite-induced Plasmodium berghei infected in mouse assessed as daily dose required to suppression of 90% parasite infection administered with diet for 6 days; type: functional
Plasmodium berghei [3] = assay: Antimalarial activity against Plasmodium berghei infected in mouse assessed as disease cure from parasite infection at 320 mg/kg, sc administered 72 hrs after infection; type: functional, organism-based; parameters: dose 320 mg/kg
Pseudomonas aeruginosa = assay: Antibacterial activity against Pseudomonas aeruginosa 28 by gradient plate test; type: functional
Enterococcus faecalis = assay: Antibacterial activity against Streptococcus faecalis MGH-2 by gradient plate test; type: functional
Plasmodium berghei [4] = assay: Antimalarial activity against Plasmodium berghei infected in mouse assessed as increase in mean survival days of host at 5 mg/kg, sc administered 72 hrs after infection relative to control; type: functional; details: route subcutaneous
Shigella sonnei = assay: Antibacterial activity against Shigella sonnei C-10 by gradient plate test; type: functional
Plasmodium berghei [5] = assay: Antimalarial activity against Plasmodium berghei infected in mouse assessed as disease cure from parasite infection at 40 mg/kg, sc administered 72 hrs after infection; type: functional, organism-based; parameters: dose 40 mg/kg
Staphylococcus aureus [6] = assay: Antibacterial activity against drug-resistant Staphylococcus aureus S18713 by gradient plate test; type: functional
Plasmodium berghei [7] = assay: Antimalarial activity against Plasmodium berghei infected in mouse assessed as disease cure from parasite infection at 20 mg/kg, sc administered 72 hrs after infection; type: functional, organism-based; parameters: dose 20 mg/kg
Plasmodium berghei [8] = assay: Antimalarial activity against Plasmodium berghei infected in mouse assessed as increase in mean survival days of host at 20 mg/kg, sc administered 72 hrs after infection relative to control; type: functional; details: route subcutaneous
Plasmodium berghei [9] = assay: Antimalarial activity against Plasmodium berghei infected in mouse assessed as increase in mean survival days of host at 10 mg/kg, sc administered 72 hrs after infection relative to control; type: functional; details: route subcutaneous
Plasmodium berghei [10] = assay: Antimalarial activity against Plasmodium berghei infected in mouse assessed as increase in mean survival days of host at 2.5 mg/kg, sc administered 72 hrs after infection relative to control; type: functional; details: route subcutaneous
Plasmodium berghei [11] = assay: Antimalarial activity against Plasmodium berghei infected in mouse assessed as increase in mean survival days of host at 1.25 mg/kg, sc administered 72 hrs after infection relative to control; type: functional; details: route subcutaneous
Plasmodium berghei [12] = assay: Antimalarial activity against Plasmodium berghei infected in mouse assessed as disease cure from parasite infection at 640 mg/kg, sc administered 72 hrs after infection; type: functional, organism-based; parameters: dose 640 mg/kg
Staphylococcus aureus [13] = assay: Antibacterial activity against Staphylococcus aureus UC-96 by gradient plate test; type: functional
Plasmodium berghei [14] = assay: Antimalarial activity against Plasmodium berghei infected in mouse assessed as disease cure from parasite infection at 80 mg/kg, sc administered 72 hrs after infection; type: functional, organism-based; parameters: dose 80 mg/kg
Escherichia coli = assay: Antibacterial activity against Escherichia coli Vogel by gradient plate test; type: functional
Plasmodium berghei [15] = assay: Antimalarial activity against Plasmodium berghei infected in mouse assessed as disease cure from parasite infection at 160 mg/kg, sc administered 72 hrs after infection; type: functional, organism-based; parameters: dose 160 mg/kg
[16] = system: Mycobacterium tuberculosis; assay: Antibacterial activity against Mycobacterium tuberculosis H37Ra by gradient plate test; type: functional
Plasmodium gallinaceum [17] = assay: Antimalarial activity against sporozoite-induced Plasmodium gallinaceum infected in white leghorn chicken assessed as disease cure from parasite infection at 160 mg/kg, sc administered 72 hrs after infection; type: functional, organism-based; parameters: dose 160 mg/kg
Plasmodium gallinaceum [18] = assay: Antimalarial activity against sporozoite-induced Plasmodium gallinaceum infected in white leghorn chicken assessed as disease cure from parasite infection at 80 mg/kg, sc administered 72 hrs after infection; type: functional, organism-based; parameters: dose 80 mg/kg
Plasmodium gallinaceum [19] = assay: Antimalarial activity against sporozoite-induced Plasmodium gallinaceum infected in white leghorn chicken assessed as disease cure from parasite infection at 320 mg/kg, sc administered 72 hrs after infection; type: functional, organism-based; parameters: dose 320 mg/kg
Plasmodium berghei [20] = assay: Antimalarial activity against Plasmodium berghei infected in mouse assessed as increase in mean survival days of host at 80 mg/kg, sc administered 72 hrs after infection relative to control; type: functional; details: route subcutaneous
Plasmodium berghei [21] = assay: Antimalarial activity against Plasmodium berghei infected in mouse assessed as increase in mean survival days of host at 160 mg/kg, sc administered 72 hrs after infection relative to control; type: functional; details: route subcutaneous
Plasmodium berghei [22] = assay: Antimalarial activity against Plasmodium berghei infected in mouse assessed as increase in mean survival days of host at 40 mg/kg, sc administered 72 hrs after infection relative to control; type: functional; details: route subcutaneous
Plasmodium gallinaceum [23] = assay: Antimalarial activity against trophozoite-induced Plasmodium gallinaceum infected in white leghorn chicken assessed as disease cure from parasite infection at 160 mg/kg, sc administered 72 hrs after infection; type: functional, organism-based; parameters: dose 160 mg/kg
Plasmodium gallinaceum [24] = assay: Antimalarial activity against trophozoite-induced Plasmodium gallinaceum infected in white leghorn chicken assessed as disease cure from parasite infection at 320 mg/kg, sc administered 72 hrs after infection; type: functional, organism-based; parameters: dose 320 mg/kg
Plasmodium gallinaceum [25] = assay: Antimalarial activity against trophozoite-induced Plasmodium gallinaceum infected in white leghorn chicken assessed as increase in mean survival days of host at 40 mg/kg, sc administered 72 hrs after infection relative to control; type: functional; details: route subcutaneous
Plasmodium gallinaceum [26] = assay: Antimalarial activity against trophozoite-induced Plasmodium gallinaceum infected in white leghorn chicken assessed as increase in mean survival days of host at 20 mg/kg, sc administered 72 hrs after infection relative to control; type: functional; details: route subcutaneous
Plasmodium gallinaceum [27] = assay: Antimalarial activity against trophozoite-induced Plasmodium gallinaceum infected in white leghorn chicken assessed as increase in mean survival days of host at 80 mg/kg, sc administered 72 hrs after infection relative to control; type: functional; details: route subcutaneous
Plasmodium gallinaceum [28] = assay: Antimalarial activity against trophozoite-induced Plasmodium gallinaceum infected in white leghorn chicken assessed as increase in mean survival days of host at 320 mg/kg, sc administered 72 hrs after infection relative to control; type: functional; details: route subcutaneous
Plasmodium gallinaceum [29] = assay: Antimalarial activity against trophozoite-induced Plasmodium gallinaceum infected in white leghorn chicken assessed as increase in mean survival days of host at 10 mg/kg, sc administered 72 hrs after infection relative to control; type: functional; details: route subcutaneous
Plasmodium gallinaceum [30] = assay: Antimalarial activity against trophozoite-induced Plasmodium gallinaceum infected in white leghorn chicken assessed as increase in mean survival days of host at 160 mg/kg, sc administered 72 hrs after infection relative to control; type: functional; details: route subcutaneous

| SMILES | Activity (Plasmodium berghei [3]) | MIC (Pseudomonas aeruginosa) | MIC (Enterococcus faecalis) | MST (Plasmodium berghei [4]) | MIC (Shigella sonnei) | Activity (Plasmodium berghei [5]) | MIC (Staphylococcus aureus [6]) | MST (Plasmodium berghei [8]) | MST (Plasmodium berghei [9]) | Activity (Plasmodium berghei [12]) | MIC (Staphylococcus aureus [13]) | Activity (Plasmodium berghei [14]) | MIC (Escherichia coli) | Activity (Plasmodium berghei [15]) | MIC [16] | MST (Plasmodium berghei [20]) | MST (Plasmodium berghei [22]) | other results |
| --- | --- | --- | --- | --- | --- | --- | --- | --- | --- | --- | --- | --- | --- | --- | --- | --- | --- | --- |
| CN(Cc1ccc(Cl)c(Cl)c1)c1ccc2nc(N)nc(N)c2c1.Cl | – | – | – | – | – | – | – | – | – | – | – | – | – | – | – | – | – | Ratio (Plasmodium berghei [1]): 470; SD90 (Plasmodium berghei [2]): 0.16 mg/kg/day |
| Cc1c(Sc2ccc3ccccc3c2)ccc2nc(N)nc(N)c12 | Active | > 25 µg/mL | < 2.5 µg/mL | 10.9 days | < 2.5 µg/mL | Active | < 2.5 µg/mL | 20.9 days | 12.9 days | Active | < 2.5 µg/mL | Active | < 2.5 µg/mL | Active | – | – | – | Activity (Plasmodium berghei [7]): Active; MST (Plasmodium berghei [10]): 6.5 days; MST (Plasmodium berghei [11]): 1.9 days |
| COc1cc(Cc2cnc(N)nc2N)cc(OC)c1OC [TRIMETHOPRIM] | – | > 25 µg/mL | < 0.25 µg/mL | – | < 0.25 µg/mL | – | < 0.25 µg/mL | – | – | – | < 0.25 µg/mL | – | < 0.25 µg/mL | – | > 25 µg/mL | – | – | Ratio (Plasmodium berghei [1]): 0.6; SD90 (Plasmodium berghei [2]): 120 mg/kg/day |
| Nc1nc(N)c2c(Cl)c(Sc3cccc(C(F)(F)F)c3)ccc2n1 | Active | > 25 µg/mL | < 0.25 µg/mL | – | 2 µg/mL (≈ 5.39 µM) | Active | < 0.25 µg/mL | 5.9 days | – | Active | < 0.25 µg/mL | Active | 0.5 µg/mL (≈ 1.35 µM) | Active | 10 µg/mL (≈ 27 µM) | 19.9 days | 14.7 days | Activity (Plasmodium gallinaceum [17]): Active; Activity (Plasmodium gallinaceum [18]): Active; Activity (Plasmodium gallinaceum [19]): Active; MST (Plasmodium berghei [21]): 24.9 days |
| Nc1nc(N)c2cc(Sc3c(Cl)c(Cl)c(Cl)c(Cl)c3Cl)ccc2n1 | Active | > 25 µg/mL | 1.5 µg/mL (≈ 3.4 µM) | 2.7 days | > 25 µg/mL | Active | 20 µg/mL (≈ 45.4 µM) | 10.7 days | 6.6 days | – | 10 µg/mL (≈ 22.7 µM) | Active | > 25 µg/mL | Active | – | – | 18.1 days | MST (Plasmodium berghei [10]): 2 days |
| Nc1nc(N)c2cc(Sc3cc(Cl)cc(Cl)c3)ccc2n1 | Active | > 25 µg/mL | < 0.25 µg/mL | – | 20 µg/mL (≈ 59.3 µM) | – | < 0.25 µg/mL | 4.1 days | 1.1 days | Active | < 0.25 µg/mL | – | 2 µg/mL (≈ 5.93 µM) | Active | 20 µg/mL (≈ 59.3 µM) | 12.7 days | 6.9 days | MST (Plasmodium berghei [21]): 17.9 days |
| Nc1nc(N)c2cc(Sc3ccc(-c4ccccc4)cc3)ccc2n1 | Active | – | – | 1.1 days | – | – | – | 7.9 days | 6.5 days | – | – | Active | – | Active | – | 15.6 days | 12.1 days | – |
| Cc1c(Sc2ccc(Cl)c(Cl)c2)ccc2nc(N)nc(N)c12 | Active | – | – | 7.3 days | – | Active | – | 15.4 days | 7.9 days | Active | – | Active | – | Active | – | – | – | Activity (Plasmodium berghei [7]): Active; MST (Plasmodium berghei [10]): 2.5 days; MST (Plasmodium berghei [11]): 1.3 days |
| CN(Cc1ccc(Cl)c(Cl)c1)c1ccc2nc(N)nc(N)c2c1 | Active | – | – | – | – | Active | – | – | – | Active | – | Active | – | Active | – | – | – | Activity (Plasmodium gallinaceum [23]): Active; Activity (Plasmodium berghei [7]): Active; Activity (Plasmodium gallinaceum [24]): Active |
| CC(=O)Nc1ccc(Sc2ccc3nc(N)nc(N)c3c2)cc1 | Active | > 25 µg/mL | < 0.25 µg/mL | – | > 25 µg/mL | – | < 0.25 µg/mL | 6.3 days | 3.3 days | Active | < 0.25 µg/mL | Active | 2.5 µg/mL (≈ 7.68 µM) | Active | > 25 µg/mL | 24.9 days | 12.9 days | – |
| Nc1nc(N)c2cc(Sc3cc(Cl)ccc3Cl)ccc2n1 | Active | > 25 µg/mL | < 0.25 µg/mL | 2.3 days | 10 µg/mL (≈ 29.7 µM) | – | < 0.25 µg/mL | 5.9 days | 2.9 days | Active | < 0.25 µg/mL | – | 1 µg/mL (≈ 2.97 µM) | Active | – | 9.8 days | 8.2 days | Ratio (Plasmodium berghei [1]): 17; MST (Plasmodium berghei [21]): 8.8 days; SD90 (Plasmodium berghei [2]): 4.5 mg/kg/day |
| Nc1nc(N)c2cc(NCc3ccc(Cl)c(Cl)c3)ccc2n1 | – | – | – | – | – | – | – | – | – | – | – | – | – | – | – | – | – | MST (Plasmodium gallinaceum [25]): 12.1 days; MST (Plasmodium gallinaceum [26]): 7 days; MST (Plasmodium gallinaceum [27]): 12.9 days; MST (Plasmodium gallinaceum [28]): 16.6 days; MST (Plasmodium gallinaceum [29]): 2.2 days; MST (Plasmodium gallinaceum [30]): 15.3 days |

Source: ChEMBL document CHEMBL3272271, “Folate antagonists. 13. 2,4-Diamino-6-](alpha,alpha,alpha-trifluoro-m-tolyl)thio]quinazoline and related 2,4-diamino-6-[(phenyl- and naphthyl)thio]quinazolines, a unique class of antimetabolites with extraordinary antimalarial and antibacterial effects” (J Med Chem, 1978)
